This is an account of results in US7662864B2, “Solution polymerization processes to prepare a polymer that degrades to release a physiologically active agent” (Rutgers, The State University of New Jersey, priority 2003, dated 2010).

The nature of data set [1]: Plasma diflunisal in rats after subcutaneous polydiflunisal microspheres. In kind it is in vivo. The following applies: single oral dose. The source says:
Processes for making nanoparticle formulations are also known in the art, and need not be fully described in this patent. The surface eroding property of polymers such as polydiflunisal makes for solid, non-porous particles, e.g. nano- and micro-spheres, useful for sustained drug delivery, and their release duration may be controlled by varying particle diameter, e.g. larger microparticles biodegrade more slowly than smaller ones. Nano- and microparticles for pharmaceutical formulations may be designed to deliver an agent(s) or compound(s) incorporated into the polymer backbone and optionally an agent(s) blended, appended to, or dispersed in the polymer. […] Microparticle formulations of about 1, 2, 5, 7.5, 10, 25, 50 to about 10, 15, 30, 50, 75, 100, 250 μm are suitable for use in a pharmaceutical, veterinary or other type of formulations. Similarly, nanoparticle formulations may be administered for various applications, having a particle size about 1, 2, 5, 10 to about 15, 20, 30, 50, 100, 250, 500 nm, or various ranges between any two of these values. […] While the injection of a drug or biological agent carried by a polymer of the invention, e.g. a polyNSAID, may be expected to generate significant drug, e.g. NSAID, concentrations in tissues near the injection site, their systemic levels in most cases will remain less than about […], which are far below therapeutic levels. […]

For data set [2] the following is noted: cited from earlier work; for Plasma Levels (Anti-Inflammatory Effectiveness): Clinical Use.
The conditions of data set [3]: cited from earlier work.
The test system of another data set is Rat. The note with it: in vivo; cited from earlier work.
Data set [4] deals with chronically-inflamed tissue. The following applies: cited from earlier work.

Like-named read-outs stand apart in the source and are kept apart here.

Take `O=C(O)c1cc(-c2ccc(F)cc2F)ccc1O` [Diflunisal, 5-(2,4-difluorophenyl)-salicylic acid]: in data set [1], the “course of drug level” value is on record as “declined rapidly”. For the same molecule, the “Plasma Levels (Anti-Inflammatory Effectiveness)” value in data set [2] was 50 to 190 µg/mL. Further, in data set [2] (in vivo), the “No. Metabolites” value is given as 2; the Plasma half-life is 8 to 12 h; the “Where Metabolized” value is listed as “Liver, Intestine”. In addition, the “Water Solubility” value in data set [3] is given as “Very Low”.
In the case of `O=C(O)c1ccccc1O` [Salicylic Acid], in data set [2], the “Plasma Levels (Anti-Inflammatory Effectiveness)” value is 150 to 300 µg/mL. Besides, the “Water Solubility” value in data set [3] was “High”.
`O=C(O)CCCCCCCCC(=O)O` [Sebacic Acid]: in the data set with Rat, the “Rat Oral LD50” value was 14,470 mg/kg.
With `CN1CC[C@]23c4c5ccc(O)c4O[C@H]2[C@@H](O)C=C[C@H]3[C@H]1C5` [morphine], the pain relief result was “profound pain relief” in data set [4] (1 mg injected into chronically-inflamed gum tissue) and “pain relief similar to that of 4 mg dexamethasone” in data set [4] (3 mg intra-articular injection in RA patients).
